Measured values taken from patent publication US20230183193A1, “4-DIFLUOROMETHYL BENZOYL AMIDES WITH HERBICIDAL ACTION” (BAYER CROPSCIENCE AKTIENGESELLSCHAFT, priority 2017, published 2023).

How the values were obtained:
Type in all cases: in vivo
[1] = test system: Viola tricolor; assay: Pre-emergence herbicidal action, VIOTR; conditions: dosage 320 g/ha, scored visually after 3 weeks vs untreated controls
From the text: (§1) 1. Pre-Emergence Herbicidal Action Against Harmful Plants Seeds of monocotyledonous and dicotyledonous weed plants and crop plants are laid out in sandy loam soil in wood-fiber pots and covered with soil. The compounds of the invention, formulated in the form of wettable powders (WP) or as emulsion concentrates (EC), are then applied to the surface of the covering soil in the form of an aqueous suspension or emulsion at a water application rate equating to […], with addition of 0.2% wetting agent. After the treatment, the pots are placed in a greenhouse and kept under good growth conditions for the trial plants. The damage to the test plants is scored visually after a test period of 3 weeks by comparison with untreated controls (herbicidal activity in percent (%): 100% activity=the plants have died, 0% activity=like control plants).
(§2) For comparison, the herbicidal activity of numerous compounds according to the invention was tested with the structurally closest compounds known from the documents WO 2011/035874, WO 2012/028579 and WO 2012/126932, by the pre- and post-emergence method.

[2] = test system: Viola tricolor; assay: Post-emergence herbicidal action, VIOTR; conditions: 80 g/ha, Table D
Experimental: (§3) Seeds of monocotyledonous and dicotyledonous weed and crop plants are laid out in sandy loam soil in wood-fiber pots, covered with soil and cultivated in a greenhouse under good growth conditions. 2 to 3 weeks after sowing, the test plants are treated at the one-leaf stage. The compounds of the invention, formulated in the form of wettable powders (WP) or as emulsion concentrates (EC), are then sprayed onto the green parts of the plants in the form of an aqueous suspension or emulsion at a water application rate equating to […], with addition of 0.2% wetting agent. After the test plants have been left to stand in the greenhouse under optimal growth conditions for about 3 weeks, the action of the preparations is assessed visually in comparison to untreated controls (herbicidal action in percent (%): 100% activity=the plants have died, 0% activity=like control plants). […] At the same time, inventive compounds leave Gramineae crops such as barley, wheat, rye, millet/sorghum, corn or rice virtually undamaged when applied post-emergence, even at high active compound dosages. In addition, some substances are also harmless to dicotyledonous crops such as soya, cotton, oilseed rape, sugar beet or potatoes. Some of the compounds according to the invention have high selectivity and are therefore suitable for controlling unwanted vegetation in agricultural crops by the post-emergence method. The data of Tables C and D below illustrate, in an exemplary manner, the […] herbicidal action of the compounds according to the invention, the herbicidal activity being stated in percent.
as §2

[3] = test system: Stellaria media; assay: Post-emergence herbicidal action, STEME; conditions: 80 g/ha, Table D
Experimental: as §3, §2

[4] = test system: Amaranthus retroflexus; assay: Pre-emergence herbicidal action, AMARE; conditions: dosage 320 g/ha, scored visually after 3 weeks vs untreated controls
From the text: as §1, §2

[5] = test system: Setaria viridis; assay: Post-emergence herbicidal action, SETVI; conditions: 80 g/ha, Table C
Experimental: as §3, §2

[6] = test system: Pharbitis purpureum; assay: Post-emergence herbicidal action, PHBPU; conditions: 80 g/ha, Table D
Experimental: as §3, §2

[7] = test system: Amaranthus retroflexus; assay: Post-emergence herbicidal action, AMARE; conditions: 80 g/ha, Table D
Experimental: as §3, §2

[8] = test system: ECHCG; assay: Post-emergence herbicidal action, ECHCG; conditions: 80 g/ha, Table C
Experimental: as §3

[9] = test system: Stellaria media; assay: Pre-emergence herbicidal action, STEME; conditions: dosage 320 g/ha, scored visually after 3 weeks vs untreated controls
From the text: as §1, §2

[10] = test system: Abutilon theophrasti; assay: Post-emergence herbicidal action, ABUTH; conditions: 80 g/ha, Table D
Experimental: as §3, §2

[11] = test system: Matricaria inodora; assay: Pre-emergence herbicidal action, MATIN; conditions: dosage 320 g/ha, scored visually after 3 weeks vs untreated controls
From the text: as §1, §2

[12] = test system: Abutilon theophrasti; assay: Pre-emergence herbicidal action, ABUTH; conditions: dosage 320 g/ha, scored visually after 3 weeks vs untreated controls
From the text: as §1, §2

[13] = test system: Setaria viridis; assay: Pre-emergence herbicidal action, SETVI; conditions: dosage 320 g/ha, scored visually after 3 weeks vs untreated controls
From the text: as §1, §2

[14] = test system: Cyperus serotinus; assay: Pre-emergence herbicidal action, CYPES; conditions: dosage 320 g/ha, scored visually after 3 weeks vs untreated controls
From the text: as §1, §2

[15] = test system: Avena fatua; assay: Pre-emergence herbicidal action, AVEFA; conditions: dosage 320 g/ha, scored visually after 3 weeks vs untreated controls
From the text: as §1, §2

Row | Structure (SMILES) | herbicidal activity VIOTR [1] | herbicidal activity VIOTR [2] | Herbicidal activity STEME [3] | herbicidal activity AMARE [4] | herbicidal activity SETVI [5] | Herbicidal activity PHBPU [6] | herbicidal activity AMARE [7] | Herbicidal activity ECHCG [8] | Herbicidal activity STEME [9] | herbicidal activity ABUTH [10] | herbicidal activity MATIN [11] | herbicidal activity ABUTH [12] | herbicidal activity SETVI [13] | herbicidal activity CYPES [14] | herbicidal activity AVEFA [15]
1 | CCSc1c(C(F)F)ccc(C(=O)Nc2ncnn2C)c1C [Example 4-4] | 100% | 100% | 90% | 100% | 90% | 80% | 100% | 100% | 100% | 80% | 100% | – | – | – | –
2 | Cn1ncnc1NC(=O)c1ccc(C(F)F)c([S+](C)[O-])c1F (stereo not drawn) [Example 4-38] | – | 100% | 90% | – | – | 90% | 90% | 80% | – | 90% | – | 90% | – | – | –
3 | CC[S+]([O-])c1c(C(F)F)ccc(C(=O)Nc2ncnn2C)c1F (stereo not drawn) [Example 4-41] | 90% | 90% | 90% | 100% | – | 90% | 90% | 80% | 80% | 100% | – | 100% | 80% | – | –
4 | CCSc1c(C(F)F)ccc(C(=O)Nc2ncnn2C)c1F [Example 4-40] | 100% | 80% | 90% | 100% | 90% | – | 100% | 90% | 100% | 80% | 100% | 100% | 80% | 100% | –
5 | CCSc1c(C(F)F)ccc(C(=O)Nc2nonc2Cl)c1C [Example 6-4] | 100% | 100% | 90% | 100% | 100% | 80% | – | 100% | 90% | 90% | 90% | 90% | 100% | – | 90%
6 | CC[S+]([O-])c1c(C(F)F)ccc(C(=O)Nc2ncnn2C)c1C (stereo not drawn) [Example 4-5] | 100% | 100% | 90% | 100% | 90% | 90% | 90% | 90% | – | 80% | 90% | – | – | – | –
7 | CSc1c(C(F)F)ccc(C(=O)Nc2ncnn2C)c1C1CC1 [Example 4-25] | 100% | 90% | 100% | 90% | – | 80% | 90% | – | 90% | – | 90% | 90% | – | – | –
8 | CC[S+]([O-])c1c(C(F)F)ccc(C(=O)Nc2ncnn2C)c1C1CC1 (stereo not drawn) [Example 4-29] | 100% | 90% | 90% | 90% | – | 90% | 80% | – | 90% | 80% | 90% | 100% | – | – | –
